In patent US10745377B2, “Piperidine or piperazine linked imidazole and triazole derivatives and methods of use” (MERCK SHARP & DOHME CORP., priority 2013, dated 2020):

Assays:
Type in all cases: biochemical
CYP3A4 = biological target: T1, CYP3A4 (Homo sapiens, UniProt P08684); test: Cocktail assay for CYPs in human liver microsomes: CYP3A4 (midazolam 1′-hydroxylation); details: human liver microsomes 0.1 mg/mL, 2 μM midazolam, 10 min at 37° C., 6 concentrations up to 10 μM; read-out: IC50 (nM) CYP3A4
T1 construct: 0.1 mg/mL protein human liver microsomes (BD Gentest); tissue BD Gentest; host or cells: human liver microsomes

CYP2C19 = biological target: T2, CYP2C19 (Homo sapiens, UniProt P33261); test: Cocktail assay for CYPs in human liver microsomes: CYP2C19 (mephenytoin 4′-hydroxylation); details: human liver microsomes 0.1 mg/mL, 30 μM mephenytoin, 10 min at 37° C., 6 concentrations up to 10 μM; read-out: IC50 (nM) CYP2C19
T2 construct: 0.1 mg/mL protein human liver microsomes (BD Gentest); tissue BD Gentest; host or cells: human liver microsomes
Description: (§1) Determination of IC50 in a Cocktail Assay for CYPs 1A2, 2C9, 2C19, 2D6 and 3A4
(§2) This assay was performed in a standard 96-well plate design. […] The incubation substrate mix contains 10 μM phenacetin (1A2), 5 μM diclofenac (2C9), 30 μM mephenytoin (2C19), 5 μM dextromethorphan (2D6) and 2 μM midazolam (3A4), 0.1 mg/mL protein human liver microsomes (BD Gentest), 1 mM NAPDH, 3.3 mM MgCl2 and 100 mM potassium phosphate buffer (pH 7.4). The production of the metabolite of each probe substrate was determined after incubation for 10 min at 37° C. Quantitation of the metabolite peak area ratio against an internal standard (tolbutamide) was determined by LC/MS/MS analysis following acetonitrile treatment of the incubations.
(§3) Samples were analyzed in the MRM mode with a SCIEX API-4000 mass spectrometer (Applied Biosystems, Foster City, Calif.), with a Shimadzu LC-20 AD pump (Shimadzu corporation, Kyoto, JP) and a CTC PAL autosampler (Agilent Technologies, Switzerland). A Phenomenex, Luna, 5 μm, 100 A, 2.00×30 mm HPLC column was used for the separation. The mobile phases were: (A) 0.1% formic acid in water and (B) 0.1% formic acid in acetonitrile. The binary gradient was as follows.
(§4) The mass spectrum parameters were as follows:
(§5) The LC/MS/MS parameters for the analytes were as follows.
(§6) The peak area ratio of the analyte to the internal standard was used to quantify the metabolite. The values of peak area ratios in the presence of test compound were compared to those of maximum or minimum controls and were expressed as % inhibition by interpolating between the maximum and minimum peak area ratios. Incubations with no inhibitor were defined as the maxima.
(§7) The following equation was used to calculate the % inhibition: [1−[(X−Low control)/(High control−Low control)]]*100
(§8) For the IC50 calculation, SigmaPlot was used to plot the mean % inhibition versus the test compound concentrations and for non-linear regression analysis of the data. Depending on the range of data points defining the inhibition curve, the data may have been fit to the 4-parameter logistic equation.

CYP2C9 = biological target: T3, CYP2C9 (Homo sapiens, UniProt P11712); test: Cocktail assay for CYPs in human liver microsomes: CYP2C9 (diclofenac 4′-hydroxylation); details: human liver microsomes 0.1 mg/mL, 5 μM diclofenac, 10 min at 37° C., 6 concentrations up to 10 μM; read-out: IC50 (nM) CYP2C9
T3 construct: 0.1 mg/mL protein human liver microsomes (BD Gentest); tissue BD Gentest; host or cells: human liver microsomes
Description: as §1, §2, §3, §4, §5, §6, §7, §8

CYP2D6 = biological target: T4, CYP2D6 (Homo sapiens, UniProt P10635); test: Cocktail assay for CYPs in human liver microsomes: CYP2D6 (dextromethorphan O-demethylation); details: human liver microsomes 0.1 mg/mL, 5 μM dextromethorphan, 10 min at 37° C., 6 concentrations up to 10 μM; read-out: IC50 (nM) CYP2D6
T4 construct: 0.1 mg/mL protein human liver microsomes (BD Gentest); tissue BD Gentest; host or cells: human liver microsomes
Description: as §1, §2, §3, §4, §5, §6, §7, §8

CYP1A2 = biological target: T5, CYP1A2 (Homo sapiens, UniProt P05177); test: Cocktail assay for CYPs in human liver microsomes: CYP1A2 (phenacetin O-deethylation); details: human liver microsomes 0.1 mg/mL, 10 μM phenacetin, 10 min at 37° C., 6 concentrations up to 10 μM; read-out: IC50 (nM) CYP1A2
T5 construct: 0.1 mg/mL protein human liver microsomes (BD Gentest); tissue BD Gentest; host or cells: human liver microsomes
T5 sequence (P05177 1-516): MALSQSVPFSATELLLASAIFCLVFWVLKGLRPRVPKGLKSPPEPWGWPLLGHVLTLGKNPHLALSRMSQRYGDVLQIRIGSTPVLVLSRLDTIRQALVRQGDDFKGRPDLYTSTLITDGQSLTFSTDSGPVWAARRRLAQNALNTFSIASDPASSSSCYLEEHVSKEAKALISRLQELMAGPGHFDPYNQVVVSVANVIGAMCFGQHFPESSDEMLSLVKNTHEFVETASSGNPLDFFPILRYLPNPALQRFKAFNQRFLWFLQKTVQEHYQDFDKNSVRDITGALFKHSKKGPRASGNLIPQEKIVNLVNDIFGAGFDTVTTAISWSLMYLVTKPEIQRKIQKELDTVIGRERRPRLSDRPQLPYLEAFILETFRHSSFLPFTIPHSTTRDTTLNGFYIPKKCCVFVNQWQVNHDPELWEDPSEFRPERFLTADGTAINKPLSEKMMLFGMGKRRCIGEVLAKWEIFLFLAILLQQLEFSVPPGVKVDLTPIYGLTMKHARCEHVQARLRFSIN
Description: as §1, §2, §3, §4, §5, §6, §7, §8

T1 sequence (P08684 whole entry): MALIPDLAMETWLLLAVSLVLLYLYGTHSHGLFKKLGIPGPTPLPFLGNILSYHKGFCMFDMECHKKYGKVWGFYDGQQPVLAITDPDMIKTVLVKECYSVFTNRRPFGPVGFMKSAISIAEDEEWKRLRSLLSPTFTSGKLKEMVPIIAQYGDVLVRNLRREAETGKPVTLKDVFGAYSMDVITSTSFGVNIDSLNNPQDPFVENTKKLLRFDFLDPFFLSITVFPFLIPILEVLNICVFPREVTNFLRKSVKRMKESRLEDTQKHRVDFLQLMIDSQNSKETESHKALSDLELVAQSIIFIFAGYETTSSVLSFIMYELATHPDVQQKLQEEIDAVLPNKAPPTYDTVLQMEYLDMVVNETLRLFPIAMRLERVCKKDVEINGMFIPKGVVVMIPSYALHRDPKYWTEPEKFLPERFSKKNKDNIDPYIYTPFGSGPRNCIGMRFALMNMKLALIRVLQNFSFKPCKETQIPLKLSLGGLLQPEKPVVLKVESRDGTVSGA
T2 sequence (P33261 whole entry): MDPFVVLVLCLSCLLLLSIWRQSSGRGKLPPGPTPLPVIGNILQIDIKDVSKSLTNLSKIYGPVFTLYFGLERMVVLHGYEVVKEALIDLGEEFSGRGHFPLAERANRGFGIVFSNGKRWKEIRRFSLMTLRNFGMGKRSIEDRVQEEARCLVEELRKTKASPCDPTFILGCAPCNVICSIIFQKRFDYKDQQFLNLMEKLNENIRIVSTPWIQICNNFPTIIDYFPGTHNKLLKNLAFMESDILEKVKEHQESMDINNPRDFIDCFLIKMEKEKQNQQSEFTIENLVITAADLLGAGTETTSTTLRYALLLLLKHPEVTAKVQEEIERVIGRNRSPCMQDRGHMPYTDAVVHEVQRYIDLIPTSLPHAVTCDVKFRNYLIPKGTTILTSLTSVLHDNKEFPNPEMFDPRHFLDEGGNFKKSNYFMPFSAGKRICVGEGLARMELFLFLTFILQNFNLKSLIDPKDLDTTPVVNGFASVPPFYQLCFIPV
T4 sequence (P10635 whole entry): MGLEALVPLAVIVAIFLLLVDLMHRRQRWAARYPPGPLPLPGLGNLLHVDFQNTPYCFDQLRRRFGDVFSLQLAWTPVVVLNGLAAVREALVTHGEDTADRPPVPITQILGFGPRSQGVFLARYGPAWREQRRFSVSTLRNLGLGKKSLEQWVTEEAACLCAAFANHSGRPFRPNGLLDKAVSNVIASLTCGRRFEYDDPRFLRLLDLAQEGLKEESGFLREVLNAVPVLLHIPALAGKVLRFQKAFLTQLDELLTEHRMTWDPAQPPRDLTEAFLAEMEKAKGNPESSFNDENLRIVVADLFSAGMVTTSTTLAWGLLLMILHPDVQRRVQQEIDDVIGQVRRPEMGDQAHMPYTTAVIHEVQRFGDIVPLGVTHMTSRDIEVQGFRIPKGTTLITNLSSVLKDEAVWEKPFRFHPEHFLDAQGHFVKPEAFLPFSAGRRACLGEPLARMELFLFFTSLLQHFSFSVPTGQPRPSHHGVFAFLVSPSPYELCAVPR
T3 sequence (P11712 whole entry): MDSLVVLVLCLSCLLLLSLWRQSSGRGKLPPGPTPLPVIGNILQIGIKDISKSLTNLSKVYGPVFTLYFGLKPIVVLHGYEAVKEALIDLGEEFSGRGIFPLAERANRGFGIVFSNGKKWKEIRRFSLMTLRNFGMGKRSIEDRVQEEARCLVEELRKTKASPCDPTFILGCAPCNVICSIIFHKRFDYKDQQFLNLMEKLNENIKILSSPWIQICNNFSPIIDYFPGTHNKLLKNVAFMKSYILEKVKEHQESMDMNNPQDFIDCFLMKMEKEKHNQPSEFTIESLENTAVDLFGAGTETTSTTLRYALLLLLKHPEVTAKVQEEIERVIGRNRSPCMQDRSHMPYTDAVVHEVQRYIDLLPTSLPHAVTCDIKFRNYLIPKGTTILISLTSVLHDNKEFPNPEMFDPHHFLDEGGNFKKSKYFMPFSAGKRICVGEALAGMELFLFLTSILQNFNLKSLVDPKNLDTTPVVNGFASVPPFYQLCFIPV

| Structure (SMILES) | IC50 (CYP3A4) [nM] | IC50 (CYP2C19) [nM] | IC50 (CYP2C9) [nM] | IC50 (CYP2D6) [nM] | IC50 (CYP1A2) [nM] |
| --- | --- | --- | --- | --- | --- |
| CC(C)OCCn1cncc1CN1CCN(c2nc3ccccc3o2)CC1 [Compound 26, 2-(4-((1-(2-isopropoxyethyl)-1H-imidazol-5-yl)methyl)piperazin-1-yl)benzo[d]oxazole] | 21 | > 10000 | > 10000 | 1040 | > 10000 |
| CC(C)C(C)n1cncc1CN1CCN(c2nc3ccccc3o2)CC1 (centres unmarked) [Compound 27, 2-(4-((1-(3-methylbutan-2-yl)-1H-imidazol-5-yl)methyl)piperazin-1-yl)benzo[d]oxazole] | 9 | > 10000 | > 10000 | 1760 | > 10000 |
| C[C@H](c1ccc(C#N)cc1)n1cncc1CN1CCN(c2nc3cccc(F)c3o2)CC1 [Compound 28, (R)-4-(1-(5-((4-(7-fluorobenzo[d]oxazol-2-yl)piperazin-1-yl)methyl)-1H-imidazol-1-yl)ethyl)benzonitrile] | 10 | 3570 | 3870 | 1110 | > 10000 |
| Cc1cccc2nc(N3CCN(Cc4cncn4[C@H](C)c4ccc(C#N)cc4)CC3)oc12 [Compound 29, (R)-4-(1-(5-((4-(7-methylbenzo[d]oxazol-2-yl)piperazin-1-yl)methyl)-1H-imidazol-1-yl)ethyl)benzonitrile] | 20 | 4970 | 2490 | 2770 | > 10000 |
| C[C@H](c1ccc(C#N)cc1)n1cncc1CN1CCN(c2nc3ccc(F)cc3o2)CC1 [Compound 30, (R)-4-(1-(5-((4-(6-fluorobenzo[d]oxazol-2-yl)piperazin-1-yl)methyl)-1H-imidazol-1-yl)ethyl)benzonitrile] | 7 | 8400 | 5550 | 1620 | > 10000 |
| C[C@H](c1ccc(C#N)cc1)n1cncc1CN1CCN(c2nc3ccc(F)c(F)c3o2)CC1 [Compound 31, (R)-4-(1-(5-((4-(6,7-difluorobenzo[d]oxazol-2-yl)piperazin-1-yl)methyl)-1H-imidazol-1-yl)ethyl) benzonitrile] | 7 | 3740 | 2320 | 2870 | > 10000 |
| CC(C1CCOCC1)n1cncc1CN1CCN(c2nc3ccccc3o2)CC1 (centres unmarked) [Compound 32, 2-(4-((1-(1-(tetra-hydro-2H-pyran-4-yl)ethyl)-1H-imidazol-5-yl)methyl)piperazin-1-yl)benzo[d] oxazole] | 24 | > 10000 | > 10000 | > 10000 | > 10000 |
| c1ccc(CCn2cncc2CN2CCN(c3nc4ccccc4o3)CC2)nc1 [Compound 33, 2-(4-((1-(2-(pyridin-2-yl)ethyl)-1H-imidazol-5-yl)methyl)piperazin-1-yl)benzo[d] oxazole] | 35 | ≥ 10000 | 6520 | 2090 | > 10000 |
| CC(c1ccc(S(C)(=O)=O)cc1)n1cncc1CN1CCN(c2nc3ccccc3o2)CC1 (centres unmarked) [Compound 34, 2-(4-((1-(1-(4-(methylsulfonyl)phenyl)ethyl)-1H-imidazol-5-yl)methyl)piperazin-1-yl)benzo [d]oxazole] | 8 | ≥ 10000 | ≥ 10000 | 2520 | > 10000 |
| CC(C1CCOCC1)n1cncc1CN1CCN(c2nc3ccc(F)c(F)c3o2)CC1 (centres unmarked) [Compound 35, 6,7-difluoro-2-(4-((1-(1-(tetrahydro-2H-pyran-4-yl)ethyl)-1H-imidazol-5-yl)methyl)piperazin-1-yl) benzo[d]oxazole] | 4 | > 10000 | > 10000 | > 10000 | > 10000 |
| CC(Cn1cncc1CN1CCN(c2nc3ccccc3o2)CC1)C(F)(F)F (centres unmarked) [Compound 36, 2-(4-((1-(3,3,3-trifluoro-2-methylpropyl)-1H-imidazol-5-yl)methyl)piperazin-1-yl)benzo[d]oxazole] | 45 | 4260 | 6980 | 1720 | > 10000 |
| Fc1ccc(CCn2cncc2CN2CCN(c3nc4ccccc4o3)CC2)cc1 [Compound 37, 2-(4-((1-(4-fluorophenethyl)-1H-imidazol-5-yl)methyl)piperazin-1-yl)benzo[d]oxazole] | 8 | 5380 | 4360 | 1410 | > 10000 |
| COc1ccc2nc(N3CCN(Cc4cncn4[C@H](C)c4ccc(C#N)cc4)CC3)sc2c1 [Compound 38, (R)-4-(1-(5-((4-(6-methoxybenzo[d]thiazol-2-yl)piperazin-1-yl)methyl)-1H-imidazol-1-yl)ethyl)benzonitrile] | 31 | 4720 | 6470 | 3690 | > 10000 |
| C[C@H](c1ccc(C#N)cc1)n1cncc1CN1CCN(c2nc3ccccc3[nH]2)CC1 [Compound 39, (R)-4-(1-(5-((4-(1H-benzo[d]imidazol-2-yl)piperazin-1-yl)methyl)-1H-imidazol-1-yl)ethyl)benzonitrile] | 23 | > 10000 | > 10000 | 1580 | > 10000 |
| CCS(=O)(=O)c1cnc(N2CCN(Cc3cncn3[C@H](C)Cc3ccc(F)cc3)CC2)s1 [Compound 40, (R)-5-(ethylsulfonyl)-2-(4-((1-(1-(4-fluorophenyl)propan-2-yl)-1H-imidazol-5-yl)methyl)piperazin-1-yl)thiazole] | 27 | > 10000 | > 10000 | 5260 | > 10000 |
| CCS(=O)(=O)CCc1cnc(N2CCN(Cc3cncn3[C@H](C)Cc3ccc(F)cc3)CC2)s1 [Compound 41, (R)-5-(2-(ethylsulfonyl)ethyl)-2-(4-((1-(1-(4-fluorophenyl)propan-2-yl)-1H-imidazol-5-yl)methyl)piperazin-1-yl)thiazole] | 30 | 2230 | 2700 | 2380 | > 10000 |
| CCS(=O)(=O)CCc1cnc(N2CCN(Cc3cncn3[C@H](C)c3ccc(Cl)cc3)CC2)s1 [Compound 42, (R)-2-(4-((1-(1-(4-chloro-phenyl)ethyl)-1H-imidazol-5-yl)methyl)piperazin-1-yl)-5-(2-(ethyl-sulfonyl)ethyl)thiazole] | 22 | 2400 | > 10000 | 1660 | > 10000 |
| CCS(=O)(=O)CCc1cnc(N2CCN(Cc3cncn3[C@H](C)c3ccc(F)cc3)CC2)s1 [Compound 43, (R)-2-(4-((1-(1-(4-fluoro-phenyl)ethyl)-1H-imidazol-5-yl)methyl)piperazin-1-yl)-5-(2-(ethyl-sulfonyl)ethyl) thiazole] | 50 | 4010 | > 10000 | 2950 | > 10000 |
| C[C@H](c1ccc(C#N)cc1)n1cncc1CN1CCN(c2ccccc2)C(C(=O)NC(C)(C)C)C1 (stereo partly drawn) [Compound 44, N-(tert-butyl)-4-((1-((R)-1-(4-cyanophenyl)ethyl)-1H-imidazol-5-yl)methyl)-1-phenylpiperazine-2-carboxamide] | 29 | 5840 | 5090 | > 10000 | > 10000 |
| C[C@H](c1ccc(C#N)cc1)n1cncc1CN1CCN(c2ccccc2)C(C(=O)N2CCOCC2)C1 (stereo partly drawn) [Compound 46, 4-((1R)-1-(5-((3-(morpholine-4-carbonyl)-4-phenylpiperazin-1-yl)methyl)-1H-imidazol-1-yl)ethyl) benzonitrile] | 46 | > 10000 | > 10000 | > 10000 | > 10000 |
| C[C@H](c1ccc(C#N)cc1)n1cncc1CN1CCN(c2ccccc2)C(C(=O)N2CCC(F)(F)CC2)C1 (stereo partly drawn) [Compound 47, 4-((1R)-1-(5-((3-(4,4-difluoropiperidine-1-carbonyl)-4-phenylpiperazin-1-yl)methyl)-1H-imidazol-1-yl)ethyl) benzonitrile] | 20 | 7830 | 9270 | > 10000 | > 10000 |
| C[C@H](c1ccc(F)cc1)n1cncc1CN1CCN(c2ccccc2)[C@H](C(=O)N2CCCCC2)C1 [Compound 48] | 31 | 2000 | 1470 | 4890 | > 10000 |
